≈ marks a conversion by molar mass, not a printed value. Where a name gives a salt, the structure may show the parent alone. Read-outs that look alike come from different tables or passages of the source.
Legend:
H37RvMA = experiment: Tuberculosis Alamar Blue/Resazurin assay (MIC); assay type: cell-based; conditions: Mycobacterium tuberculosis, H37RV, read-out: WT H37Rv MTB Activity
A. baumannii = experiment: Gram negative MIC protocol (OD600, LB, 24 h); conditions: Acinetobacter baumannii
Protocol: (§1) Overnight bacterial cultures were grown in LB with no added antibiotics at 37° C. with shaking. A 1:1000 dilution of these cultures into LB was exposed to concentration gradients of compounds in 96-well plates (100 μL per well assay volume). Resulting plates were incubated at 37° C. for 24 h without shaking, and OD600 was measured at the end of the incubation. MICs were determined as the lowest concentrations at which OD600 remained at baseline.

E. coli = experiment: Gram negative MIC protocol (OD600, LB, 24 h); conditions: Escherichia coli
Protocol: as §1

[1] = read-out: MIC A. baumannii LB Media
[2] = read-out: MIC E. coli delta-TolC LB Media, E. coli delta-TolC, LB media, OD600
[3] = read-out: MIC WT E. coli LB Media, WT E. coli, LB media, OD600
[4] = read-out: MIC A. baumannii LB Media, A. baumannii, LB media, 24 h, OD600
[5] = read-out: MIC E. coli delta-TolC LB Media, E. coli delta-TolC strain, LB media, 24 h, OD600
[6] = read-out: MIC WT E. coli LB Media, wild-type E. coli, LB media, 24 h, OD600

SMILES | MIC (H37RvMA) [µM] | MIC (A. baumannii; [1]) [µM] | MIC (E. coli; [2]) [µM] | MIC (E. coli; [3]) [µM] | MIC (H37RvMA; WT H37Rv MTB) [µM] | MIC (A. baumannii; [4]) [µM] | MIC (E. coli; [5]) [µM] | MIC (E. coli; [6]) [µM]
C[C@@H](CC1CCCCC1)NCc1ccccc1 [B94] | > 150 | 91 (≈ 21.1 µg/mL) | 7 (≈ 1.62 µg/mL) | 17 (≈ 3.93 µg/mL) | – | – | – | –
c1ccc(CNCC2CC3CCC2C3)cc1 (stereo not drawn) [B43] | – | – | > 150 | > 150 | > 150 | > 150 | – | –
CC(CC1CCCCC1)NCc1ccccc1OCCN(C)C (stereo not drawn) [B315] | – | – | – | – | > 150 | 150 (≈ 47.8 µg/mL) | 150 (≈ 47.8 µg/mL) | 91 (≈ 29 µg/mL)
COc1cccc(OCCOc2ccccc2CNC(C)CC2CCCCC2)c1 (stereo not drawn) [B266] | – | – | – | – | 55 (≈ 21.9 µg/mL) | 33 (≈ 13.1 µg/mL) | 2 (≈ 0.795 µg/mL) | 150 (≈ 59.6 µg/mL)
CC(CC1CCCCC1)NCc1ccccc1OCc1nc(C(C)C)no1 (stereo not drawn) [B323] | – | – | – | – | 150 (≈ 55.7 µg/mL) | > 150 | 4 (≈ 1.49 µg/mL) | > 150
CC(CC1CCCCC1)NCc1ccccc1OCCOCC(F)(F)F (stereo not drawn) [B305] | – | – | – | – | 150 (≈ 56 µg/mL) | 91 (≈ 34 µg/mL) | 3 (≈ 1.12 µg/mL) | > 150
CC(NCc1ccccc1)C1C(C)(C)C1(C)C (stereo not drawn) [B77] | – | – | > 150 | > 150 | > 150 | > 150 | – | –
Cc1cccc(CNCCC2=CCCCC2)c1 [B11, 2-(cyclohex-1-en-1-yl)-N-(3-methylbenzyl)ethan-1-amine] | – | – | > 150 | > 150 | > 150 | > 150 | – | –
c1ccc(CNCCc2cccc3c2NCCC3)cc1 [B105] | – | – | > 150 | > 150 | 91 (≈ 24.2 µg/mL) | > 150 | – | –
c1ccc(CNCCC23CCCCC2C3)cc1 (stereo not drawn) [B182] | – | – | > 300 | > 300 | 91 (≈ 20.9 µg/mL) | > 300 | – | –
c1ccc(CNCCc2cccc3cccnc23)cc1 [B42] | – | – | > 150 | > 150 | > 150 | > 150 | – | –
CC(CC1CCCCC1)NCc1ccccc1OCC(=O)N1CCNC1=O (stereo not drawn) [B347] | – | – | – | – | > 150 | > 150 | 4 (≈ 1.49 µg/mL) | 150 (≈ 56 µg/mL)
O=C1Cc2ccccc2CN1C1CCCCC1 [B418, 2-cyclohexyl-1,4-dihydroisoquinolin-3(2H)-one] | – | – | > 150 | > 150 | > 150 | > 150 | – | –
CC(CC1CCCCC1)NCc1ccccc1OCc1ccccc1Cl (stereo not drawn) [B382] | – | – | – | – | 12.2 (≈ 4.54 µg/mL) | 55 (≈ 20.5 µg/mL) | 3 (≈ 1.12 µg/mL) | 55 (≈ 20.5 µg/mL)
CC(CC1CCCCC1)NCc1ccccc1CS(=O)(=O)NC(=O)NC1CCCCC1 (stereo not drawn) [B449, N-(cyclohexylcarbamoyl)-1-(2-(((1-cyclohexylpropan-2-yl)amino)methyl)phenyl) methanesulfonamide] | – | – | 12 (≈ 5.4 µg/mL) | > 150 | > 150 | > 150 | – | –
CC(CC1CCCCC1)NCc1ccccc1OCC(=O)NC(=O)NC(C)(C)C (stereo not drawn) [B325] | – | – | – | – | 91 (≈ 36.7 µg/mL) | 150 (≈ 60.5 µg/mL) | 4 (≈ 1.61 µg/mL) | > 150
C1=Nc2cccc(CCNCc3ccccc3)c2C1 [B57] | > 150 | > 150 | > 150 | > 150 | – | – | – | –
CC(NCc1ccccc1)C1Cc2ccccc21 (stereo not drawn) [B110] | – | – | > 150 | > 150 | > 150 | > 150 | – | –
OB1OCc2ccc(CNCc3ccccc3)cc21 [B158, 6-((benzylamino)methyl)benzo[c][1,2]oxaborol-1(3H)-ol] | – | – | > 150 | > 150 | > 150 | > 150 | – | –
c1ccc(CNCCN2CC3CCC(C2)O3)cc1 [B64] | > 150 | – | > 150 | > 150 | – | > 150 | – | –
c1ccc(CNCCC2CCOC2)cc1 (stereo not drawn) [B40] | – | – | > 150 | > 150 | > 150 | > 150 | – | –
COc1ccc2cccc(CCNCc3ccccc3)c2c1 [B199] | – | – | – | – | 150 (≈ 43.7 µg/mL) | 170 (≈ 49.5 µg/mL) | 170 (≈ 49.5 µg/mL) | > 300
c1csc(-c2ccccc2CNCCC2CCCCC2)c1 [B230, 2-cyclohexyl-N-(2-(thiophen-2-yl)benzyl)ethanamine hydrochloride] | – | – | – | – | 55 | 96 | 4 | 96
COC(=O)c1ccoc1COc1ccccc1CNC(C)CC1CCCCC1 (stereo not drawn) [B267] | – | – | – | – | 91 (≈ 35.1 µg/mL) | > 150 | 7 (≈ 2.7 µg/mL) | > 150
c1ccc(CNCC2(c3ccc4c(c3)OCO4)CC2)cc1 [B18] | > 150 | – | > 150 | > 150 | – | > 150 | – | –
OC(CNCc1ccccc1)c1ccc2ccccc2c1 (stereo not drawn) [B138] | – | – | > 150 | > 150 | > 150 | > 150 | – | –

SMILES | MIC (H37RvMA) [µM] | MIC (A. baumannii; [1]) [µM] | MIC (E. coli; [2]) [µM] | MIC (E. coli; [3]) [µM] | MIC (H37RvMA; WT H37Rv MTB) [µM] | MIC (A. baumannii; [4]) [µM] | MIC (E. coli; [5]) [µM] | MIC (E. coli; [6]) [µM]
CC(CC1CCCCC1)NCc1ccccc1OC1CCCCC1 (stereo not drawn) [B387, 1-cyclohexyl-N-(2-(cyclohexyloxy)benzyl)propan-2-amine] | – | – | – | – | 33.4 (≈ 11 µg/mL) | 55 (≈ 18.1 µg/mL) | 3 (≈ 0.989 µg/mL) | 91 (≈ 30 µg/mL)
CC(CC1CCCCC1)NCc1ccccc1CCS(N)(=O)=O (stereo not drawn) [B451, 2-(2-(((1-cyclohexylpropan-2-yl)amino)methyl)phenyl)ethane-1-sulfonamide] | – | – | 4 (≈ 1.35 µg/mL) | 55 (≈ 18.6 µg/mL) | > 150 | 150 (≈ 50.8 µg/mL) | – | –
CC(=O)Oc1ccccc1CNCCC1CCCCC1 [B256, 2-((2-cyclohexylethylamino)methyl)phenyl acetate] | – | – | – | – | > 150 | > 150 | 150 | > 150
c1ccc(CNCCC2CCCCCC2)cc1 [B102] | – | – | 90 (≈ 20.8 µg/mL) | 120 (≈ 27.8 µg/mL) | 91 (≈ 21.1 µg/mL) | 150 (≈ 34.7 µg/mL) | – | –
CC(C)CNCc1ccccc1 [B136] | – | – | > 150 | > 150 | > 150 | > 150 | – | –
CC(CC1CCCCC1)NCc1ccccc1OC1CCC1 (stereo not drawn) [B385, N-(2-cyclobutoxybenzyl)-1-cyclohexylpropan-2-amine] | – | – | – | – | 90.9 (≈ 27.4 µg/mL) | 150 (≈ 45.2 µg/mL) | 2 (≈ 0.603 µg/mL) | 91 (≈ 27.4 µg/mL)
COc1ccc(C(C)C(C)NCc2ccccc2)cc1OC (stereo not drawn) [B54] | > 150 | – | > 150 | > 150 | – | > 150 | – | –
CC(CC1CCCCC1)NCc1cccc2ccn(CC(=O)O)c12 (stereo not drawn) [B436, 2-(7-(((1-cyclohexylpropan-2-yl)amino)methyl)-1H-indol-1-yl)acetic acid hydrochloride] | – | – | 91 | > 150 | > 150 | > 150 | – | –
CCCCCCNCc1ccccc1 [B6] | – | – | > 150 | > 150 | > 150 | > 150 | – | –
CC(Cc1cccc(C(F)(F)F)c1)NCc1ccccc1 (stereo not drawn) [B81] | > 150 | > 150 | > 150 | > 150 | – | – | – | –
COC(=O)c1ccccc1CNCCC1CCCCC1 [B258, methyl 2-((2-cyclohexylethylamino)methyl)benzoate hydrochloride] | – | – | – | – | > 150 | > 150 | 100 | > 150
CC(CC1CCCCC1)NCc1ccccc1OCCO (stereo not drawn) [B337] | – | – | – | – | > 150 | 150 (≈ 43.7 µg/mL) | 4 (≈ 1.17 µg/mL) | 55 (≈ 16 µg/mL)
CC(CC1CCCCC1)NCc1ccccc1OC1CC2CCC1CC2 (stereo not drawn) [B395, N-(2-(bicyclo[2.2.2]octan-2-yloxy)benzyl)-1-cyclohexylpropan-2-amine] | – | – | – | – | 20.2 (≈ 7.18 µg/mL) | 33 (≈ 11.7 µg/mL) | 3 (≈ 1.07 µg/mL) | > 150
FC(F)(F)c1ccccc1CNCCC1CCCCC1 [B225, 2-cyclohexyl-N-(2-(trifluoromethyl)benzyl)ethanamine hydrochloride] | – | – | – | – | > 150 | 300 | > 150 | > 300
CC(CC1CCCCC1)NCc1ccccc1CS(=O)(=O)NCC(=O)NCC(=O)O (stereo not drawn) [B452, ((2-(((1-cyclohexylpropan-2-yl)amino)methyl)benzyl)sulfonyl)glycylglycine] | – | – | > 150 | > 150 | > 150 | > 150 | – | –
Fc1ccc2c(c1)[C@@H](NCc1ccccc1)CC2 [B208, hydrochloride] | – | – | – | – | > 150 | > 300 | > 300 | > 300
CC(CC1CCCCC1)NCc1ccccc1OCc1ccccc1 (stereo not drawn) [B409, N-(2-(benzyloxy)benzyl)-1-cyclohexylpropan-2-amine] | – | – | 3 (≈ 1.01 µg/mL) | 55 (≈ 18.6 µg/mL) | 12.2 (≈ 4.12 µg/mL) | 55 (≈ 18.6 µg/mL) | – | –
CC(CC1CCCCC1)NCc1ccccc1OCCCN1CCOC1=O (stereo not drawn) [B264] | – | – | – | – | > 150 | 150 (≈ 56.2 µg/mL) | 3 (≈ 1.12 µg/mL) | 150 (≈ 56.2 µg/mL)
CCOc1ccccc1CNC(C)CC1CCCCC1 (stereo not drawn) [B293] | – | – | – | – | > 150 | > 150 | 4 (≈ 1.1 µg/mL) | 150 (≈ 41.3 µg/mL)
CC(CNCc1ccccc1)N1CCc2ccccc2C1 (stereo not drawn) [B130] | – | – | > 150 | > 150 | > 150 | > 150 | – | –
C1=Nc2c(cccc2CCNCc2ccccc2)C1 [B48] | 150 (≈ 37.6 µg/mL) | 150 (≈ 37.6 µg/mL) | > 150 | > 150 | – | – | – | –
CC(CC1CCCCC1)NCc1ccccc1OCc1ccccc1C1CC1 (stereo not drawn) [B462, 1-cyclohexyl-N-(2-((2-cyclopropylbenzyl)oxy)benzyl)propan-2-amine] | – | – | 4 (≈ 1.51 µg/mL) | > 150 | 10 (≈ 3.78 µg/mL) | 33 (≈ 12.5 µg/mL) | – | –
COCCOc1ccccc1CNC(C)CC1CCCCC1 (stereo not drawn) [B294] | – | – | – | – | > 150 | > 150 | 7 (≈ 2.14 µg/mL) | > 150
CC(CC1CCCCC1)NCc1ccccc1OCc1nnn(C)n1 (stereo not drawn) [B322] | – | – | – | – | > 150 | 150 (≈ 51.5 µg/mL) | 4 (≈ 1.37 µg/mL) | 150 (≈ 51.5 µg/mL)
NS(=O)(=O)c1ccccc1CNCCC1CCCCC1 [B345] | – | – | – | – | > 150 | 33 (≈ 9.78 µg/mL) | 20 (≈ 5.93 µg/mL) | > 150

— patent publication US11261201B2 (priority 2018, dated 2022)
